Results published in US20110166066A1, “CATESTATIN (CST) AND ITS VARIANTS FOR TREATMENT OF CARDIOVASCULAR AND METABOLIC DISORDERS” (priority 2008, published 2011).
Like-named read-outs stand apart in the source and are kept apart here. No end group written: not given here.

What was measured:
pAMPK = test: AMPK signalling by immunoblotting of mouse tissues; format: in vivo; conditions: CgA-KO mice
Excerpt: (§1) Adult WT (C57BL/6) and CgA-KO mice with mixed genetic background (129svJ×C57BL/6) were used in this study. Both WT and KO mice were generated from the original founder carrying mixed genotype (50% 129svJ: 50% C57BL/6) and were maintained by brother/sister mating. Hypertensive CGA-KO mice will serve as a model for hyper insulin sensitivity. WT mice were fed 60% high fat diet (HFD) for 20 weeks. Body weight and blood glucose levels were monitored and glucose and insulin tolerance testa were performed to determine status of insulin resistance. After 20 weeks of HFD feeding mice were injected IP with catestatin (40 μg/gm body weight) twice daily for 7 days. On the 8th day, 12 hours fasted mice were subjected to glucose tolerance tests to determine their insulin sensitivity. Tissues of WT and CgA-KO mice are analyzed AMPK and eNOS signalling by immunoblotting.

[1] = system: WT, CgA-KO and HFD fed insulin resistant mice; test: Blood glucose / glucose tolerance tests; format: in vivo
Excerpt: as §1

[2] = system: Langendorff perfused rat heart; test: Langendorff perfused rat heart, basal conditions: concentration-response of catestatin peptides
Excerpt: Animals-Male Wistar rats (Morini, Bologna, Italy S.P.A.) weighing 180-250 g were housed (three per cage) in a ventilated cage rack system under standard conditions. Animals had food and water access ad libitum. The investigation conforms to the Guide for the Care and Use of Laboratory Animals, according to NIH Publication No. 85-23, revised 1996. Isolated heart preparation-Rats were anesthetized with ethyl carbamate (2 g/Kg rat, i.p.), the hearts rapidly excised and then transferred in ice-cold buffered Krebs-Henseleit solution (KHs). As previously described (23), the aorta was immediately cannulated with a glass cannula and connected to Langendorff apparatus to start perfusion at constant flow-rate (12 ml/min). Briefly, the apex of the left ventricle (LV) was pierced to avoid fluid accumulation. A water-filled latex balloon, connected to a pressure transducer ([…], Inc. USA), was inserted through mitral valve into the LV allowing isovolumic contractions and continuous mechanical parameters recording. Another pressure transducer located just above the aorta recorded coronary pressure (CP). […] Hemodynamic parameters were assessed using a PowerLab data acquisition system and analysed using Chart software (both purchased by ADInstruments, Basile, Italy). […] Curve fitting was accomplished in the program Kaleidagraph (Synergy Software, Reading, Pa.). Peptide EC50 and IC50 values were interpolated as the concentration that achieved 50% stimulation and inhibition, respectively. For analysis of phosphorylated proteins, levels were quantified using Bio-Rad QuantifyOne and volumes of phosphorylated proteins were divided by the levels of non-phosphorylated proteins to calculate fold activation. Stimulation of protein activity was expressed as fold increase over vehicle-treated control. The means and S.E.M. were calculated for each treatment. Multiple comparisons were made using either one-way ANOVA followed by Bonferroni's post-hoc test or two-way ANOVA. Statistical significance was concluded at p<0.05. Statistics were computed with the program InStat (GraphPad Software, Inc., San Diego, Calif.).

C57BL/6 wild-type mice = test: Mouse hind-limb ischemia model; format: in vivo; conditions: for Blood perfusion (LDPI), in words: 3 and 4 weeks after operation
Method: Mouse hind-limb ischemia model. Male C57BL/6 wild-type mice at the age of 12 months were subjected to unilateral hind-limb surgery. Briefly, the left femoral artery was exposed, ligated with 5-0 silk ligatures, and excised. Mice were injected with saline or 10 μg catestatin into thigh and calf muscles after operation and every other day for weeks 1 and 2 and 2 times per week for weeks 3 and 4. All further measurements and analyses were performed by investigators blinded to the treatment of the animals.
Blood flow measurement. Blood flow measurements were performed using a laser Doppler perfusion image (LDPI) analyzer (Moor Instruments, USA) as described. To minimize data variables attributable to ambient light and temperature animals were kept on a heating plate at 37° C. before measurement and blood perfusion is expressed as the LDPI index representing the ratio of left (=operated, ischemic leg) versus right (=not-operated, not-ischemic leg) limb blood flow. A ratio of 1 before operation indicates equal blood perfusion of both legs, whereas after femoral artery excision this ratio drops to 0.26, indicating severe attenuation of leg blood supply in the operated leg.
Alkaline phosphatase staining and Immunohistochemistry. For tissue staining, mice were sacrificed and ischemic limb tissues were retrieved after 4 weeks. Specimens were fixed in 10% (v/v) buffered formaldehyde, dehydrated with graded ethanol series and embedded in paraffin. Alternatively, fresh tissue was embedded in OCT compound (TISSUE-TEK®, Sakura Finetek) and snap-frozen in liquid nitrogen. Tissues were sliced into 5-μm sections. Vascular endothelial cells were identified by alkaline phosphatase staining and for assessment of artery/arteriole density sections were stained with a mouse monoclonal alpha-smooth muscle actin antibody (Pharmingen) as described (36). Adductor muscle samples of each leg were divided into 2 parts and capillaries (alkaline phosphatase positive) and arteries (alpha-smooth muscle actin positive) were counted in five sections of each part and are expressed as capillary and arteriole density per mm^2.

[3] = system: WT and Chga knockout (KO) mice; test: Plasma catecholamine assay; format: in vivo; conditions: CST 40 μg/g bw ip for 30 min
Method: Catecholamine assay following immobilization stress: Mice were anesthetized by inhalation of “Isoflurane, USP” and blood was collected from the left ventricle in potassium EDTA tubes. […] Plasma catecholamine was measured by HPLC connected to an electrochemical detector (Waters 600E Multisolvent Delivery system and Waters 2465 Electrochemical Detector, MA) in a group of restraint mice (non-telemetered). Separation was performed on an Atlantis dC18 column (2.1×150 mm, 3 μm) from Waters. The mobile phase (0.15 ml/min) consisted of phosphate-citrate buffer and 2.2% N, N-Dimethylacetamide and acetonitrile at 95:5 (V/V). An internal standard 3,4-Dihydroxybenzylamine (DHBA, 1 ng) and an antioxidant sodium meta-bisulfite (final concentrations of 0.125 mM) were added to 0.25 ml of plasma. Following the addition of 15 mg of alumina (Aluminium oxide, Activity Grade: Super I, Type WA-4, Sigma-Aldrich, PA), the pH of the solution was raised to pH 8.6 by adding Tris buffer (0.96 M Tris, 50 mM EDTA, pH 8.69). Following a 30 min incubation and centrifugation (5000 rpm, 5 min), the supernatant was discarded and the beads were washed with water. The catecholamine was eluted with […] of 0.1 N HCl supplemented with 0.1 mM sodium meta-bisulfite. The data were analyzed using Empower software. Catecholamine levels were normalized with the recovery of internal standard.

With “SSMKLSFRARAYGFRGPGPQL [WT-CST, catestatin]” the pAMPK signal (pAMPK) was “reduced”, the “Peak blood glucose level” value ([1]; HFD fed insulin resistant mice, 40 μg/gm IP twice daily 7 days) was “reduced” and the Blood glucose level ([1]; WT and CgA-KO mice) was “raised”. The “Reduction of blood glucose level (glucose tolerance tests)” value ([1]; insulin-resistant HFD mice) was 15-20%, the EC50 [2] was about 12.5 nM and the “Time the LVP effect remained stable” value [2] was 15 min. The “Time to maximum effect on LVP after administration” value [2] was 5 min, the IC50 ([2]; 11 to 200 nM, measured at 10 min, read-out: +(LVdP/dt)max inhibition IC50) was about 72 nM and the EC50 ([2]; 11 to 200 nM, measured at 10 min, read-out: T/−t increment EC50) was 60 nM. For the same sequence, the IC50 ([2]; 11 to 200 nM, measured at 10 min, read-out: −(LVdP/dt)max decrement IC50) was 74 nM, the “Concentration of maximum CP response” value ([2]; basal) was 200 nM and the “Concentration of maximum HR increase” value ([2]; basal) was 165 nM. For the same sequence, the “Effect on CP (coronary pressure)” value ([2]; basal) was “dose-dependent increment”, the Activity rank order ([2]; basal conditions, Table 2) was “Activity: WT-CST > P370L-CST > G364S-CST” and the Inotropism ([2]; basal conditions, Table 2) was “Negative”. The Lusitropism ([2]; basal conditions, Table 2) was “Negative”, the “Effect on HR” value ([2]; basal, WT-Cts significant at 33 nM) was “significantly increased” and the “Desensitization on repetitive exposure” value ([2]; single concentration 33 nM, repeated) was “absence of desensitization”. For the same sequence, the “Blood perfusion (LDPI), in words” value (C57BL/6 wild-type mice; listed as CST) was “improved perfusion”, the “Blood perfusion (LDPI), in words” value (C57BL/6 wild-type mice; listed as catestatin) was “improved blood perfusion” and the “Capillary density, in words” value (C57BL/6 wild-type mice; 4 weeks) was “significantly increased capillary density”. The “Density of arteries/arterioles, in words” value (C57BL/6 wild-type mice; 4 weeks) was “increases density of arteries/arterioles”, the “Alpha-smooth muscle actin positive vessels” value (C57BL/6 wild-type mice; 4 weeks after surgery) was 7.5±0.5 vessels/mm^2 and the “Capillaries (alkaline phosphatase positive vessels)” value (C57BL/6 wild-type mice; 4 weeks after surgery) was 356±17 capillaries/mm^2. The LDPI ratio (C57BL/6 wild-type mice; 4 wks after induction of ischemia, 10 μg i.m.) was 0.94±0.03, the “Perfusion ratios versus saline” value (C57BL/6 wild-type mice; after 3 weeks) was “significantly better” and the “Basal plasma norepinephrine and epinephrine” value [3] was “returned to WT level”.
